One series addresses MCL-1 (Homo sapiens, UniProt Q07820, K194A/K197A/R201A). Briefly: Protein-protein interaction assay MCL-1/Noxa BH3 peptide, TR-FRET (MCL-1 assay, Assay 1). As to conditions: MBP-MCL-1 / Noxa BH3 peptide. In kind it is binding. In outline:
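Human MBP-fused MCL-1 (aa 173-321; 1 nM final) was pre-incubated 10 min at 22 °C with compound in pH 7 Tris buffer containing NaCl, KF, Tween-20, DTT and BGG. Displacement of biotinylated Noxa BH3 peptide was read by TR-FRET (anti-MBP-Eu cryptate/streptavidin-XL665) after 1 h at 22 °C plus overnight at 4 °C. IC50 came from four-parameter fits against DMSO controls.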

Another series concerns the target BCL-2 (Homo sapiens, UniProt P10415). Briefly: Protein-protein interaction assay BCL-2/Bad BH3 peptide, TR-FRET (BCL-2 assay, Assay 3). Type of series: binding. The settings on record: His-BCL-2 / Bad BH3 peptide, median.
Series [1] relates to SUDHL5. In words: Induction of caspase-3/7 activity in SUDHL5 cells (Assay 4). In kind it is cell-based. The essentials: (§1)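 DLBCL lines SUDHL5 and SUDHL10 were treated with compound for 3 h at 37 °C. Caspase-3/7 activity was then read by Caspase-Glo 3/7 luminescence after 1 h at 37 °C. Medium-only background was subtracted and values were normalized to the mean of DMSO-treated cells.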

Series [2] concerns SUDHL10. In words: Induction of caspase-3/7 activity in SUDHL10 cells (Assay 4). In kind it is cell-based. The essentials:
as §1

Series [3] relates to SUDHL5. Briefly: Induction of cytotoxicity in SUDHL5 cells, CellTiter-Glo (Assay 6). The settings on record: SUDHL5, 5 hours incubation, median, read-out: Cytotox SUDHL5 [M] (median). In kind it is cell-based. In outline:
(§2)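 Cells plated and held overnight at 37° C in a humidified incubator, then compound-treated for 5 hours at 37° C. Viability read by CellTiter-Glo luminescence after 15 minutes shaking at room temperature; cell-free medium served as control.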

The test system of series [4] is SUDHL10. Briefly: Induction of cytotoxicity in SUDHL10 cells, CellTiter-Glo (Assay 6). Type of series: cell-based. The settings on record: SUDHL10, 5 hours incubation, median, read-out: Cytotox SUDHL10 [M] (median). The essentials: as §2
(In general: ATP-based viability assays read luminescence as a measure of living cells.)

In a further series the test system is MV-4-11. In words: Anti-proliferative effect in MV-4-11 cells, CellTiter-Glo (Assay 7). Type of series: cell-based. The essentials:
(§3)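 Proliferation is measured as luminescence from CellTiter-Glo after cells grow with compound for 72 h in a humidified 37 °C incubator. A reference plate read at time zero supplies the day 0 baseline, and DMSO wells serve as control for IC50 calculation.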

For the next series, the system named is AMO-1. In words: Anti-proliferative effect in AMO-1 cells, CellTiter-Glo (Assay 7). In kind it is cell-based. In outline: as §3
[5] abbreviates: median, read-out: MCL-1 Assay [M] (median).
Setting [6] is: SUDHL5, 3 hours treatment, Caspase-Glo 3/7, median, read-out: Caspase SUDHL5 [M] (median).
[7] abbreviates: SUDHL10, 3 hours treatment, Caspase-Glo 3/7, median, read-out: Caspase SUDHL10 [M] (median).
The mark [8] stands for this setting: MV-4-11, 72 hours incubation, CellTiter-Glo; several values per example; read-out: Antiproli MV-4-11.
The mark [9] stands for this setting: AMO-1, 72 hours incubation, CellTiter-Glo; several values per example; read-out: Antiproli AMO-1.
Setting [10] is: Homo sapiens, SU-DHL-5, 3 h, SUDHL5, 3 hours treatment, Caspase-Glo 3/7, median, read-out: Caspase SUDHL5 [M] (median).
[11] abbreviates: Homo sapiens, SU-DHL10, 3 h, SUDHL10, 3 hours treatment, Caspase-Glo 3/7, median, read-out: Caspase SUDHL10 [M] (median).
Where [12] appears, read: Homo sapiens, AMO1, 72 h, AMO-1, 72 hours incubation, CellTiter-Glo; several values per example; read-out: Antiproli AMO-1.
The mark [13] stands for this setting: read-out: Caspase SUDHL10 [M] (median), SUDHL10, 3 hours treatment, Caspase-Glo 3/7.
Where [14] appears, read: read-out: Antiproli AMO-1; AMO-1, 72 hours incubation, CellTiter-Glo; several values per example.

Where “and” joins values, the source holds several entries; their conditions need not be identical. Equal values may be shown once. Where a name gives a salt, the structure may show the parent alone. Read-outs that look alike come from different tables or passages of the source. Bounds are passed on as bounds.

Chain of BCL-2 (P10415 1-211): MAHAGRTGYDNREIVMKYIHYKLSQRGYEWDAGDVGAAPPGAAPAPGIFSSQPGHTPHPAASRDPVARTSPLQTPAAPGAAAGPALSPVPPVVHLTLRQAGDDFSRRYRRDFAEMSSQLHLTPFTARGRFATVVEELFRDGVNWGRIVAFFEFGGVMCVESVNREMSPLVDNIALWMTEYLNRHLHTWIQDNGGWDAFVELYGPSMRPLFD
Chain of MCL-1 (Q07820 173-321 K194A/K197A/R201A, looked up): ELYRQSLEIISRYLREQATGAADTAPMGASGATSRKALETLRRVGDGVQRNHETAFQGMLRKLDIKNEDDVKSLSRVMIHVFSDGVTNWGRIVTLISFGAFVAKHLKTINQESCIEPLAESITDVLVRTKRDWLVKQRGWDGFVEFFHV

As for `CCNCC.Cc1c2c(nn1C)COCc1ncccc1Cn1c(C(=O)O)c(CCCOc3cccc4ccccc34)c3ccc(Cl)c-2c31` (single isomer, unassigned; enantiomer 1) [Example 43, 3-Chloro-4,5-dimethyl-17-[3-(naphthalen-1-yloxy)propyl]-5,7,9,14-tetrahydropyrazolo-[4′,3′:9,10]pyrido[2′,3′:3,4][1,6]oxazacycloundecino[8,7,6-hi]indole-16-carboxylic acid-N-ethylethanamine Salt (Enantiomer 1)], the IC50 at MCL-1 (setting [5]) is 5.1e-10 M; on BCL-2 it was more than 20 µM; in the series with SUDHL5 [3] it was 1.4e-06 M; in the series on SUDHL10 [4], 2.9e-06 M; in the series with MV-4-11 (setting [8]) it was 3.23 µM and 2.83 µM and 4.42 µM; in the series on AMO-1 (setting [9]), 5.16 µM and 7.47 µM. The EC50 is 1.2e-06 M with SUDHL5 [1] (setting [6]) and 3.7e-06 M in the series with SUDHL10 [2] (setting [7]).
`Cc1c2c(nn1C)COCc1ccccc1Cn1c(C(=O)O)c(CCCOc3cccc4cc(F)ccc34)c3ccc(Cl)c-2c31` (single isomer, unassigned; enantiomer 1) [Example 49, (−)-3-Chloro-17-{3-[(6-fluoronaphthalen-1-yl)oxy]propyl}-4,5-dimethyl-5,7,9,14-tetrahydroindolo[7,1-fg]pyrazolo[3,4-d][2,8]benzoxazacycloundecine-16-carboxylic acid-N-ethylethanamine Salt (Enantiomer 1)]: the IC50 against MCL-1 (MCL-1 Assay [M] (median)) is 4.7e-10 M; against BCL-2, not below 21.8 µM; with SUDHL5 [3] (Homo sapiens, SU-DHL-5, 5 h) it was 8.8e-07 M; with SUDHL10 [4] (Homo sapiens, SU-DHL10, 5 h), 1.6e-06 M; with MV-4-11 (Homo sapiens, MV4-11, 72 h, MV-4-11, 72 hours incubation, CellTiter-Glo; several values per example; read-out: Antiproli MV-4-11), 3.09 µM; in the series with MV-4-11 (setting [8]) it was 3.41 µM and 3.78 µM. In addition, in the series with AMO-1 (setting [12]), the IC50 amounted to 1.92 µM. The EC50 with SUDHL5 [1] (setting [10]) is 7.7e-07 M; with SUDHL10 [2] (setting [11]), 2.1e-06 M.
For the molecule `CCc1nn(CCN2CCOCC2)c2c1-c1c(Cl)ccc3c(CCCOc4cccc5cc(F)ccc45)c(C(=O)O)n(c13)Cc1ccccc1COC2` (single isomer, unassigned; enantiomer 1) [Example 52, (−)-3-Chloro-4-ethyl-17-{3-[(6-fluoronaphthalen-1-yl)oxy]propyl}-6-[2-(morpholin-4-yl)ethyl]-6,7,9,14-tetrahydroindolo[7,1-fg]pyrazolo[3,4-d][2,8]benzoxazacycloundecine-16-carboxylic Acid (Enantiomer 1)], the IC50 on MCL-1 (MCL-1 Assay [M] (median)) was 9.6e-10 M; against BCL-2, more than 20 µM; in the series on SUDHL5 [3], 5.2e-07 M; in the series on SUDHL10 [4] it was 8.8e-07 M; in the series with AMO-1 (setting [9]) it was 2.27 µM. Moreover, the values for the EC50 in the series on SUDHL5 [1] (setting [6]) and with SUDHL10 [2] (setting [7]) were 4.9e-07 M and 7.1e-07 M, respectively.
Turning to `CCc1c2c(nn1C)COCc1ccccc1Cn1c(C(=O)O)c(CCCOc3cccc4cc(F)ccc34)c3ccc(Cl)c-2c31` (single isomer, unassigned; enantiomer 1) [Example 55, (−)-3-Chloro-4-ethyl-17-{3-[(6-fluoronaphthalen-1-yl)oxy]propyl}-5-methyl-5,7,9,14-tetrahydro-indolo[7,1-fg]pyrazolo[3,4-d][2,8]benzoxazacycloundecine-16-carboxylic Acid N-ethylethanamine Salt (Enantiomer 1)], the IC50 against BCL-2 was 18 µM; with SUDHL5 [3] it was 6.4e-07 M; in the series on SUDHL10 [4] it was 1.3e-06 M; in the series with MV-4-11 (read-out: Antiproli MV-4-11; MV-4-11, 72 hours incubation, CellTiter-Glo; several values per example), 0.964 µM; in the series on AMO-1 (setting [14]) it was 1.19 µM. In addition, the EC50 with SUDHL5 [1] (Homo sapiens, SU-DHL-5, 3 h, read-out: Caspase SUDHL5 [M] (median), SUDHL5, 3 hours treatment, Caspase-Glo 3/7) turned out to be 6.6e-07 M; in the series on SUDHL10 [2] (setting [13]) it was 8.7e-07 M.
Take `CCc1nn(C)c2c1-c1c(Cl)ccc3c(CCCOc4cccc5cc(F)ccc45)c(C(=O)O)n(c13)Cc1ccccc1COC2` (single isomer, unassigned; enantiomer 1) [Example 58, (+)-3-Chloro-4-ethyl-17-{3-[(6-fluoronaphthalen-1-yl)oxy]propyl}-6-methyl-6,7,9,14-tetrahydro-indolo[7,1-fg]pyrazolo[3,4-d][2,8]benzoxazacycloundecine-16-carboxylic acid-N-ethylethanamine Salt (Enantiomer 1)]: the IC50 was found to be 2.6e-09 M at MCL-1 (setting [5]); 10.6 µM at BCL-2; 8.1e-07 M with SUDHL5 [3]; 2.6e-06 M with SUDHL10 [4]; 1.36 µM in the series with MV-4-11 (setting [8]); 1.61 µM in the series on AMO-1 (setting [9]). Further, the values for the EC50 in the series with SUDHL5 [1] (setting [6]) and in the series with SUDHL10 [2] (setting [7]) were 8e-07 M and 2.1e-06 M, respectively.
For the molecule `Cc1c2c(nn1C)COCc1ccccc1Cn1c(C(=O)O)c(CCCOc3cccc4cc(F)ccc34)c3ccc(F)c-2c31` (single isomer, unassigned; enantiomer 1) [Example 65, (−)-3-fluoro-17-{3-[(6-fluoronaphthalen-1-yl)oxy]propyl}-4,5-dimethyl-5,7,9,14-tetrahydroindolo[7,1-fg]pyrazolo[3,4-d][2,8]benzoxazacycloundecine-16-carboxylic acid-N-ethylethanamine Salt (Enantiomer 1)], the IC50 on MCL-1 (MCL-1 Assay [M] (median)) worked out at 1.3e-09 M; against BCL-2, 16.9 µM; with SUDHL5 [3], 1e-06 M; in the series with SUDHL10 [4] it was 2.1e-06 M; in the series with AMO-1 (setting [9]), 1.75 µM; in the series with AMO-1 (setting [12]), 2 µM. Further, the EC50 in the series with SUDHL5 [1] (setting [10]) was 8.1e-07 M; with SUDHL10 [2] (setting [11]), 2.1e-06 M.
On to `Cc1c2c(nn1C)COCc1ccccc1Cn1c(C(=O)O)c(CCCOc3cccc4ccccc34)c3ccc(F)c-2c31` (single isomer, unassigned; enantiomer 1) [Example 68, (−)-3-Fluoro-4,5-dimethyl-17-{3-[(naphthalen-1-yl)oxy]propyl}-5,7,9,14-tetrahydroindolo[7,1-fg]pyrazolo[3,4-d][2,8]benzoxazacycloundecine-16-carboxylic acid-N-ethylethanamine Salt (Enantiomer 1)], for which the IC50 at MCL-1 (MCL-1 Assay [M] (median)) was 3.2e-09 M; on BCL-2, more than 20 µM; with SUDHL5 [3], 1.9e-06 M; in the series with SUDHL10 [4], 4.6e-06 M; in the series with AMO-1 (setting [14]), 4.4 µM and 4.89 µM. The EC50 is 1.2e-06 M in the series on SUDHL5 [1] (read-out: Caspase SUDHL5 [M] (median), SUDHL5, 3 hours treatment, Caspase-Glo 3/7) and 1.1e-05 M with SUDHL10 [2] (setting [13]).

The values are drawn from patent publication US20210253598A1, “ARYL ANNULATED MACROCYCLIC INDOLE DERIVATIVES” (priority 2017, published 2021).
